Results as given in patent US20160178610A1, “New screening method for the treatment Friedreich's ataxia” (FRIEDRICH MIESCHER INSTITUTE FOR BIOMEDICAL RESEARCH, priority 2013, published 2016).

Assays:
[1] = tested on: endogenous FXN gene expression in FRDA-iPSC-derived neurons; test: FXN mRNA levels in FRDA-iPSC-derived neurons by real-time RT-PCR, normalized to RPL13A; format: cell-based, human; settings: for effect on FXN expression: FRDA-iPSC-derived neurons, treated for 3 weeks, five concentrations, biological duplicates
Procedure: (§1) FIG. 1: Exposure of FRDA-iPSC-derived neurons to [2,6] Naphtyhyridine is the cyclohexyl-[4-(4-phenyl-1-piperazin-1-yl-[2,6]naphthyridin-3-yl)pyridin-2-yl]amine, a chemical inhibitor of PRKD1, leads to an increase in FXN expression while a control compound has no effect. […] FXN mRNA levels were determined by real-time RT-PCR, normalized to RPL13A mRNA levels. *P=0.03.
For quantitative RT-PCR (qRT-PCR) experiments, total RNA was extracted from GM04078, FRDA-4078iBT, and HEK293T-FF2AP cell lines with the Absolutely RNA Microprep Kit (Stratagene). A 1-μg aliquot of total RNA was reverse transcribed with AffinityScript enzyme (Stratagene) using random hexamers according to the manufacturer's instructions. qRT-PCR was performed on a CFX96 Real-Time PCR System (Bio-Rad) using the SsoAdvanced SYBR Green Supermix (Bio-Rad, #172-5264). Relative RNA levels were calculated from CT values according to the ΔCT method and normalized to GAPDH mRNA or 18S rRNA levels. Reprogrammed cells were washed once and total RNA isolated using TRIzol (Life Technologies). After chloroform extraction, RNA was purified using a RNeasy Plus Kit (Qiagen, Germantown, Md.). RNA purity and concentration were verified using an Aligent 2100 Bioanalyzer (Santa Clara, Calif.). […]
Endoderm: Accutase was used for cell dissociation to single cells, which were then plated on matrigel in mTeSR with rock-inhibitor Y27632 (Calbiochem, Darmstadt, Germany) at a density of 100×10^3 per cm^2. […] In order to quantify the efficiency of differentiation into Pax6-expressing neural progenitors, immunostained cultures were generated and the percentage of Pax6-positive and DAPI-positive cells determined in 10 randomly selected microscopic fields. In order to quantify the efficiency of differentiation into β-III Tubulin-expressing neurons, a similar approach was used with cultures previously treated with cytosine-1-β-D-arabinofuranoside to prevent the expansion of neural progenitors. […]

[2] = tested on: FRDA-iPSC-derived neurons; test: Neuron viability / compound toxicity in FRDA-iPSC-derived neuron cultures; format: cell-based, human; settings: even at 10 μM
Procedure: as §1
Importantly, treatment with the compound of formula (II) led to a 25% increase in FXN mRNA expression in FRDA neurons after only 3 weeks of treatment. […] In addition, neuron viability was not affected by exposure to the compound of formula (II), even at 10 μM.

**Q.** What does the source list for `c1ccc(-c2c(-c3ccnc(NC4CCCCC4)c3)nc(N3CCNCC3)c3ccncc23)cc1` [compound of formula (II), cyclohexyl-[4-(4-phenyl-1-piperazin-1-yl-[2,6]naphthyridin-3-yl)pyridin-2-yl]amine]?
**A.** increase in FXN mRNA expression ([1]; FRDA neurons, after 3 weeks of treatment): 25%; effect on FXN expression [1]: significant increase; effect on FXN expression ([1]; listed as cyclohexyl-[4-(4-phenyl-1-piperazin-1-yl-[2,6]naphthyridin-3-yl)pyridin-2-yl]ami): increase; neuron viability [2]: not affected
